In brackets after ≈: the same amount, converted by molar mass. Several values for one entry are separate records, joined by “and”; a condition that tells them apart may be missing. Equal entries are not always repeated.
Key:
[1] = not given; remark: listed apart in the source
[2] = mdck_mdr1
[3] = human; liver_microsomes

| SMILES | solubility kinetic | logD [1] | Papp [2] | microsomal CLint [3] [µL/min/mg] |
| --- | --- | --- | --- | --- |
| O=C(O)Cn1ncc2cc(-c3cc(Cl)cc(NC(=O)OCc4ccccc4)c3)ccc21 | 131 µM (≈ 57.1 µg/mL) | 2.6 | 5.12 ×10⁻⁶ cm/s |  |
| NCc1cccc(NC(=O)[C@H](NC(=O)OCc2ccccc2)C2CCCCC2)c1 (racemic) |  | 2 | 1.58 ×10⁻⁶ cm/s | 5.29 |
| O=C(Nc1cc(Cl)cc([C@H](Nc2cccc(-c3nn[nH]n3)c2)C(=O)NCc2ccccc2)c1)OCc1ccccc1 (racemic) |  | 3.7 | 0.6 ×10⁻⁶ cm/s |  |
| O=C(Nc1cc(Cl)cc(C(=O)Nc2cccc(-c3nnn[nH]3)c2)c1)OCc1ccccc1 | 65 µM (≈ 29.2 µg/mL) | 3.7 | 5.06 ×10⁻⁶ cm/s |  |
| O=C(NCC(F)F)[C@H](Nc1ccc2c(c1)CNC2)c1cc(Cl)cc2ccoc12 (racemic) | 187 µM (≈ 75.9 µg/mL) | 0.6 | 2.1 ×10⁻⁶ cm/s |  |
| NCc1cccc(NC(=O)[C@H](NC(=O)OCc2ccccc2)C(C2CCC2)C2CCC2)c1 (racemic) |  | 2.5 | 1.6 ×10⁻⁶ cm/s | 12.6 |
| C=C[C@H]1CN2CC[C@H]1C[C@@H]2[C@@H](O)c1ccnc2ccc(OC)cc12 |  |  | 13.9 ×10⁻⁶ cm/s |  |
| CC(C)c1nc2c(C(=O)Nc3cccc(CN)c3)cccc2[nH]1 | 316 µM (≈ 97.4 µg/mL) | 1.9 | 3.84 ×10⁻⁶ cm/s |  |
| CNC(=O)[C@H](Nc1ccc(-c2nnn[nH]2)cc1)c1cc(Cl)cc(C2CC2)c1 (racemic) |  | 1.1 | 1.6 ×10⁻⁶ cm/s |  |
| CNC(=O)[C@H](Nc1ccc2c(c1)CNC2)c1cc(Cl)cc2[nH]c(-c3ccccc3)nc12 (racemic) | 178 µM (≈ 76.9 µg/mL) | 1.8 | 1.02 ×10⁻⁶ cm/s |  |
| COCc1cc(Cl)cc([C@H](Nc2ccc3c(c2)CNC3)C(=O)NCC(F)F)c1 (racemic) | 192 µM (≈ 78.7 µg/mL) | 0.2 | 1.7 ×10⁻⁶ cm/s |  |
| O=C(Nc1cc(Cl)cc(-c2ccc3[nH]c(C(=O)O)cc3c2)c1)OCc1ccccc1 | 356 µM (≈ 150 µg/mL) | 3.7 | 0.61 ×10⁻⁶ cm/s |  |
| c1ccc2sc(C3CCN(Cc4c[nH]c5ccccc45)CC3)nc2c1 | 119 µM (≈ 41.4 µg/mL) |  | 5.82 ×10⁻⁶ cm/s | 38.1 |
| NCc1cc(Cl)cc(C(=O)Nc2ccc3c(c2)CNC3)c1 |  | 2 |  |  |
| CC(C)CNC(=O)c1cc(Cl)c(F)cc1NS(=O)(=O)c1ccc(Oc2ccccc2Cl)cc1 | 4 µM (≈ 2.05 µg/mL) |  | 2.39 ×10⁻⁶ cm/s | 198 |
| CNC(=O)[C@H](Nc1cccc(-c2nn[nH]n2)c1)c1cc(Cl)cc2[nH]ncc12 (racemic) | 347 µM (≈ 133 µg/mL) | 0.3 | 0.863 ×10⁻⁶ cm/s |  |
| O=C(NCC(F)F)[C@H](Nc1cnc2c(c1)CNC2)c1cc(Cl)cc(C2CC2)c1 (racemic) | 362 µM (≈ 147 µg/mL) | 1.5 | 0.8 ×10⁻⁶ cm/s |  |
| OCC#C[C@H](Nc1ccc2c(c1)CNC2)c1cc(Cl)cc2[nH]ncc12 (racemic) | 135 µM (≈ 47.6 µg/mL) | 0.5 | 0.592 ×10⁻⁶ cm/s |  |
| NCc1cccc(NC(=O)c2cc(Cl)cc(NC(=O)OCc3ccccc3)c2)c1 | 89 µM (≈ 36.5 µg/mL) | 2.7 | 2.11 ×10⁻⁶ cm/s |  |
| C[C@H]1O[C@@H](O[C@H]2[C@@H](O)C[C@H](O[C@H]3[C@@H](O)C[C@H](O[C@H]4CC[C@@]5(C)[C@H](CC[C@@H]6[C@@H]5C[C@@H](O)[C@]5(C)[C@@H](C7=CC(=O)OC7)CC[C@]65O)C4)O[C@@H]3C)O[C@@H]2C)C[C@H](O)[C@@H]1O |  |  | 0.6 ×10⁻⁶ cm/s |  |
| Cc1cc(-c2ccc([C@H](NC(=O)OCc3ccccc3)C(=O)Nc3cccc(CN)c3)cc2)cs1 (racemic) | 8 µM (≈ 3.88 µg/mL) |  | 1.19 ×10⁻⁶ cm/s | 29.5 |

| SMILES | solubility kinetic | logD [1] | Papp [2] | microsomal CLint [3] [µL/min/mg] |
| --- | --- | --- | --- | --- |
| NCc1cccc(NC(=O)c2cccn3cc(CN4CCCC4)nc23)c1 | 332 µM (≈ 116 µg/mL) | 0.2 | 5.25 ×10⁻⁶ cm/s |  |
| CC(C)[C@H](Nc1ncnc2[nH]cc(C(=O)NC3CC3)c12)c1ccc2c(c1)S(=O)(=O)CCC2 (single isomer, unassigned) |  | 3.2 and 3 | 2.97 ×10⁻⁶ cm/s and 1.27 ×10⁻⁶ cm/s |  |
| O=C(Nc1ccc2c(c1)CNC2)c1cc(Cl)cc2c1CCC2 | 335 µM (≈ 105 µg/mL) | 1.8 | 2.57 ×10⁻⁶ cm/s |  |
| Cc1nccn1C[C@H]1CCc2c(c3ccccc3n2C)C1=O (racemic) | 127 µM (≈ 37.3 µg/mL) |  |  |  |
| O=C(NCC(F)F)[C@H](Nc1cc2c(cc1Br)CNC2)c1cc(Cl)cc(C2CC2)c1 (racemic) | 333 µM (≈ 161 µg/mL) | 2.9 | 0.2 ×10⁻⁶ cm/s |  |
| N#CCCNC(=O)[C@H](Nc1ccc2c(c1)CNC2)c1cc(Cl)cc(C2CC2)c1 (racemic) | 374 µM (≈ 148 µg/mL) | 0.6 | 0.5 ×10⁻⁶ cm/s |  |
| CC(C)NC(=O)[C@H](Nc1ccc2c(c1)CNC2)c1cc(Cl)cc2[nH]ncc12 (racemic) | 311 µM (≈ 119 µg/mL) | 0.5 | 0.963 ×10⁻⁶ cm/s |  |
| Clc1ccc2[nH]cc(Cc3ccc(-c4nn[nH]n4)cc3)c2c1 |  | 2.1 | 8.4 ×10⁻⁶ cm/s |  |
| CC(C)[C@H](Nc1ncnc2[nH]c(-c3cnn(C)c3C#N)cc12)c1ccc2c(n1)OCCO2 (single isomer, unassigned) | 53 µM and 50 µM | 3.7 and 3.9 | 13.7 ×10⁻⁶ cm/s and 14.6 ×10⁻⁶ cm/s |  |
| CC(C)[C@H](Nc1ncnc2[nH]c(-c3cnn(CC(=O)N(C)C)c3)cc12)c1ccc2c(c1)S(=O)(=O)CCC2 (single isomer, unassigned) | 361 µM and 256 µM | 2.2 | 1.17 ×10⁻⁶ cm/s and 0.555 ×10⁻⁶ cm/s |  |
| C=CC[C@H](Nc1ccc(-c2nn[nH]n2)cc1)c1cc(Cl)cc(NC(=O)OCc2ccccc2)c1 (racemic) |  | 3.9 | 2.6 ×10⁻⁶ cm/s | 10.1 |
| O=C(NCC(F)F)[C@H](Nc1ccc2c(c1)CNC2)c1cc(Br)cc2nc[nH]c12 (racemic) |  | 0.4 | 0.5 ×10⁻⁶ cm/s |  |
| c1ccc2c(CN3CCC(c4c[nH]c5cccnc45)CC3)c[nH]c2c1 |  |  | 4.6 ×10⁻⁶ cm/s | 16 |
| O=C(NCC(F)F)[C@H](Nc1ccc2c(c1)CNC2)c1cc(Cl)cc(C2CC2)c1 (racemic) | 367 µM (≈ 149 µg/mL) | 1.6 | 1.55 ×10⁻⁶ cm/s |  |
| O=C1Cc2c(cc(F)cc2C(=O)Nc2ccc3c(c2)CNC3)N1 | 368 µM (≈ 115 µg/mL) | -0.2 | 2.9 ×10⁻⁶ cm/s |  |
| CCc1cc(C(=O)Nc2cccc(CN)c2)sc1-c1ccc(Cl)cc1 | 7 µM (≈ 2.6 µg/mL) | 4.3 | 0.995 ×10⁻⁶ cm/s |  |
| COc1cc(Cl)cc([C@H](Nc2ccc3c(c2)CNC3)C(=O)NCC(F)F)c1 (racemic) |  | 0.5 | 0.7 ×10⁻⁶ cm/s |  |
| COc1cc(C#N)cc([C@H](Nc2ccc3c(c2)CNC3)C(=O)NCC(F)F)c1 (racemic) | 381 µM (≈ 147 µg/mL) | -0.4 | 0.5 ×10⁻⁶ cm/s |  |
| O=C1Cc2c(cccc2C(=O)Nc2ccc3c(c2)CNC3)N1 | 152 µM (≈ 44.6 µg/mL) | 0.3 | 0.924 ×10⁻⁶ cm/s |  |
| Cc1cc([C@H](Nc2ccc3c(c2)CNC3)C(=O)NCC(F)F)cc(C(F)(F)F)c1 (racemic) |  | 1 | 0.7 ×10⁻⁶ cm/s |  |
| NCc1cc(C(=O)O)cc([C@@H]2C[C@H]2c2cc(Cl)cc(NC(=O)OCc3ccccc3)c2)c1 (racemic) | 52 µM (≈ 23.4 µg/mL) | 2.7 | 0.819 ×10⁻⁶ cm/s |  |

| SMILES | solubility kinetic | logD [1] | Papp [2] | microsomal CLint [3] [µL/min/mg] |
| --- | --- | --- | --- | --- |
| CNC(=O)[C@H](Nc1cc(CN)cc(-c2nn[nH]n2)c1)c1cc(Cl)cc(C2CC2)c1 (racemic) | 352 µM (≈ 145 µg/mL) | 1.5 | 0.302 ×10⁻⁶ cm/s |  |
| O=C(O)COc1cccc(NC(=O)c2cc(Cl)cc(NC(=O)OCc3ccccc3)c2)c1 | 360 µM (≈ 164 µg/mL) | 1.8 | 1.1 ×10⁻⁶ cm/s |  |
| C=CC[C@H]1NCc2cc(NC(=O)c3cc(F)cc4[nH]ncc34)ccc21 (racemic) | 356 µM (≈ 120 µg/mL) | 1.7 | 3.86 ×10⁻⁶ cm/s |  |
| O=C1Cc2cc(C(=O)Nc3ccc4c(c3)CNC4)ccc2N1 | 136 µM (≈ 39.9 µg/mL) |  | 0.873 ×10⁻⁶ cm/s |  |
| CC(C)[C@H](Nc1ncnc2[nH]c(C(=O)N[C@@H]3CCN(C)C3)cc12)c1ccc2c(c1)S(=O)(=O)CCC2 (single isomer, unassigned) | 366 µM and 392 µM | 1.4 and 1.6 |  |  |
| NCc1cccc(NC(=O)C[C@H](NC(=O)OCc2ccccc2)c2ccc(OCc3ccccc3)cc2)c1 (racemic) | 17 µM (≈ 8.66 µg/mL) |  | 1.04 ×10⁻⁶ cm/s | 17 |
| O=C(NCC(F)F)[C@H](Nc1ccc2c(c1)CNC2)c1cc(Cl)cc(C2CC2)c1 (single isomer, unassigned) | 326 µM and 139 µM | 1.3 and 1.4 | 1.3 ×10⁻⁶ cm/s and 1.9 ×10⁻⁶ cm/s |  |
| CNC(=O)[C@H](Nc1ccc2c(c1)CNC2)c1cc(Cl)cc(C2CC2)c1 (racemic) | 358 µM (≈ 127 µg/mL) | 0.9 | 1.5 ×10⁻⁶ cm/s |  |
| Cn1ncc2c(C(=O)Nc3ccc4c(c3)CNC4)cc(Br)cc21 | 392 µM (≈ 146 µg/mL) | 1 | 4.66 ×10⁻⁶ cm/s |  |
| O=C(NCC(F)F)[C@H](Nc1ccc2c(c1)CNC2)c1cc(Cl)cc2c1CCC2 (racemic) |  | 1.2 | 0.9 ×10⁻⁶ cm/s |  |
| CC(C)n1cc2c(C(=O)Nc3ccc4c(c3)CNC4)cc(Cl)cc2n1 | 181 µM (≈ 64.2 µg/mL) | 1.6 | 3.4 ×10⁻⁶ cm/s |  |
| O=C(NCCCF)[C@H](Nc1ccc2c(c1)CNC2)c1cc(Cl)cc(C2CC2)c1 (racemic) | 394 µM (≈ 158 µg/mL) | 1.2 | 0.7 ×10⁻⁶ cm/s |  |
| O=C(Nc1cc(Cl)cc(C(=O)Nc2n[nH]c3c2CNC3)c1)OCc1ccccc1 | 26 µM (≈ 10.7 µg/mL) |  | 1.44 ×10⁻⁶ cm/s |  |
| Cc1ccc(NC(=O)c2cc(Cl)cc(NC(=O)OCc3ccccc3)c2)cc1CN |  |  | 0.0873 ×10⁻⁶ cm/s |  |
| CO[C@H]1C[C@H](n2ncc3c(C(=O)Nc4ccc5c(c4)CNC5)cc(Cl)cc32)C1 | 340 µM (≈ 135 µg/mL) | 1.5 | 1.6 ×10⁻⁶ cm/s |  |
| CNC(=O)[C@H](Nc1cc(CN)cc(C(=O)O)c1)c1cc(Cl)cc(C2CC2)c1 (racemic) | 335 µM (≈ 130 µg/mL) | 0 | 0.94 ×10⁻⁶ cm/s |  |
| Cc1c(C(=O)Nc2cc([C@H]3CCOC3)ccn2)cc(C2CC2)n1C (racemic) |  | 3 | 27.2 ×10⁻⁶ cm/s | 57.7 |
| O=C(Nc1cc(Cl)cc(C(=O)Nc2cccc(C3CCNCC3)c2)c1)OCc1ccccc1 | 126 µM (≈ 58.5 µg/mL) |  | 1.8 ×10⁻⁶ cm/s |  |
| CCCCNC(=O)[C@H](Nc1ccc2c(c1)CNC2)c1cc(Cl)cc(C2CC2)c1 (racemic) | 379 µM (≈ 151 µg/mL) | 2.3 | 0.7 ×10⁻⁶ cm/s |  |
| O=C(Nc1cc(Cl)cc([C@H]2CN(Cc3ccccc3)C[C@@H]2c2cccc(-c3nn[nH]n3)c2)c1)OCc1ccccc1 (racemic) |  | 4.1 | 0.2 ×10⁻⁶ cm/s | 46.3 |
